Calls of active or inactive are those of the source.

Nine compounds from ChEMBL document CHEMBL1201862, “PubChem BioAssay data set” (2004) can be followed below.

One assay deals with Mucolipin-3 (Homo sapiens, UniProt Q8TDD5). Nature of the assay: Fluorescence counterscreen assay for […] agonists: dose response cell-based high-throughput screening assay to identify agonists of the transient receptor potential channel ML3 (TRPML3). [Related pubchem assays: 1424, 1448 ]. Format: functional.
The target in assay [1] is T1, RNA-binding protein pos-1 (Caenorhabditis elegans, UniProt G5EF15).
T1 sequence (G5EF15 whole entry): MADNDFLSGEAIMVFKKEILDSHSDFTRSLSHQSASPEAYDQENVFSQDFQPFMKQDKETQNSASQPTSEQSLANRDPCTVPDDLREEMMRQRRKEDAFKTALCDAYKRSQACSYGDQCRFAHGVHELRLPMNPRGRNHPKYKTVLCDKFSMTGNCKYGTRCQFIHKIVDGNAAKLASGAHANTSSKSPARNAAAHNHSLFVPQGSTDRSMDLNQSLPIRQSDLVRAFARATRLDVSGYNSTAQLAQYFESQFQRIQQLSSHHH
Nature of the assay: inhibitors of POS-1/mex-3 RNA binding, dose response, biochemical, fluorescence polarization (AID 1964).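 Also: purified POS-1 fused to maltose binding protein made in E. coli; potency of compounds blocking POS-1 binding to fluorescent RNA.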 Background: Polarisation of emitted light reports the rotation of a fluorescent probe.

The target of assay [2] is T2, Zinc finger protein mex-5 (Caenorhabditis elegans, UniProt Q9XUB2).
T2 sequence (Q9XUB2 whole entry): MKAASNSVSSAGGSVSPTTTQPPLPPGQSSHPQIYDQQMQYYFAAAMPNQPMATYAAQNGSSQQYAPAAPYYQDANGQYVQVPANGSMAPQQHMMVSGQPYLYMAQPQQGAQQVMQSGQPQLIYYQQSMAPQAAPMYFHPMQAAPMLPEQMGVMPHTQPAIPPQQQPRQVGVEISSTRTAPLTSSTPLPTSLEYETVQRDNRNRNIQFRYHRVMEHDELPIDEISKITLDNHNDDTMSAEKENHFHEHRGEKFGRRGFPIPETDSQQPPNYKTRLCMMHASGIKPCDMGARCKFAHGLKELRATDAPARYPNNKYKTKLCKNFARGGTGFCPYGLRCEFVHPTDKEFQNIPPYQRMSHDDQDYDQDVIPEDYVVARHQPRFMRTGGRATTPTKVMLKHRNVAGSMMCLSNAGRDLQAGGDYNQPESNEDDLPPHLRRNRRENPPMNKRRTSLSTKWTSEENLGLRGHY
Nature of the assay: MEX-5/TCR-2 RNA interaction inhibitors, dose response, biochemical, C. elegans, fluorescence polarization (AID 1960).

The next assay deals with Ion channel NompC (Danio rerio, UniProt Q7T1G6). Nature of the assay: Dose response cell-based high-throughput screening assay for agonists of the transient receptor potential channel N1 (TRPN1). [Related pubchem assays (depositor defined):AID1424, AID1448]. In kind it is functional.
Assay [3] has as its target T3, Intestinal-type alkaline phosphatase (Mus musculus, UniProt P24822). The assay can be described thus: PubChem AID 488785. Format: functional.
Assay [4] addresses T4, Intestinal-type alkaline phosphatase (Homo sapiens, UniProt P09923). The assay can be described thus: inhibition of human intestinal alkaline phosphatase – biochemical, dose response (AID 488876). In kind it is functional.
Assay [5] concerns the target T5, Alkaline phosphatase, tissue-nonspecific isozyme (Homo sapiens, UniProt P05186).
T5 sequence (P05186 whole entry): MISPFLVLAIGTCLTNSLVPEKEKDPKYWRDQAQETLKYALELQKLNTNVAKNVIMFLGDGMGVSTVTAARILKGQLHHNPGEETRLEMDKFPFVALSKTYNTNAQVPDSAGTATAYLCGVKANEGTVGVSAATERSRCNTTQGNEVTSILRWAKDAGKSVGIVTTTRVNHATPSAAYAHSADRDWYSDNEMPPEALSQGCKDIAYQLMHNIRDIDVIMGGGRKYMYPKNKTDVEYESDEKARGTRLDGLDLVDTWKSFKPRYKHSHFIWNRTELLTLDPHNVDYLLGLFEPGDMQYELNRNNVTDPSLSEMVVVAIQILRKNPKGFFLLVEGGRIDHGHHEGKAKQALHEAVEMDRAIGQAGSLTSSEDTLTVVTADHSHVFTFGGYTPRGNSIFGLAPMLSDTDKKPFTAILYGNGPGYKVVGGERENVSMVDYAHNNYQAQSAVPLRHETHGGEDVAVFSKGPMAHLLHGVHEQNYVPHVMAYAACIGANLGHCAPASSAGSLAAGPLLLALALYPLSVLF
The assay can be described thus: TNAP enzyme inhibition by screening hits, dose response, selectivity assay for mouse IAP inhibitor project, biochemical, human TNAP, uHTS hits (AID 488906). Format: functional.

Assay [6] has as its target T6, Delta-type opioid receptor (Homo sapiens, UniProt P41143). Nature of the assay: DOR antagonists, SAR follow-up, image-based (AID 2357). In kind it is functional.
The target of assay [7] is T6, Delta-type opioid receptor. The assay can be described thus: DOR agonists, SAR follow-up, image-based (AID 2370). In kind it is functional.
In assay [8] the target is T7, Kappa-type opioid receptor (Homo sapiens, UniProt P41145). The assay can be described thus: SAR analysis of small molecule agonists of the kappa opioid receptor via a luminescent beta-arrestin assay. [Related pubchem assays (depositor defined):AID1777, AID1786, AID1966, AID2133, AID2136, AID2348, AID2352, AID2357, AID2359, AID2370, AID2420, AID2478, AID2491, AID2492, AID2493, AID2497, AID2498, AID2500, AID449737, AID488822, AID488842]. Format: functional.

In assay [9] the target is T8, Mu-type opioid receptor (Homo sapiens, UniProt P35372). The assay can be described thus: MOR antagonists, SAR follow-up, image-based (AID 2420).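 Also: compounds added before stimulation of receptor with agonist DAMGO.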 In kind it is functional.
Assay [10] addresses T7, Kappa-type opioid receptor. Nature of the assay: KOR agonist analogs, imaging readout, SAR follow-up, image-based (AID 2359). In kind it is functional.
The target in assay [11] is T7, Kappa-type opioid receptor. The assay can be described thus: KOR antagonists by imaging, SAR follow-up, image-based (AID 2348). In kind it is functional.
In assay [12] the target is T8, Mu-type opioid receptor. Nature of the assay: MOR agonists by imaging, SAR follow-up, image-based (AID 2352). In kind it is functional.
Assay [13] concerns the target Peroxisome proliferator-activated receptor gamma (Homo sapiens, UniProt P37231). The assay can be described thus: PPARg partial agonists, dose response, cell-based, luminescence, assay provider (AID 504447). Format: functional.
The target of assay [14] is T7, Kappa-type opioid receptor. Nature of the assay: SAR analysis of small molecule agonists of the kappa opioid receptor via a luminescent beta-arrestin assay - Set 3. [Related pubchem assays (depositor defined):AID1777, AID1785, AID1786, AID1966, AID2133, AID2136, AID2284, AID2500]. Format: functional.
Assay [15] concerns the target G-protein coupled receptor 55 (Homo sapiens, UniProt Q9Y2T6). The assay can be described thus: GPR55 antagonists, SAR follow-up, counter-screen for GPR35 antagonist project, imaging, image-based (AID 2397). In kind it is functional.
The target in assay [16] is T9, E3 ubiquitin-protein ligase XIAP (Homo sapiens, UniProt P98170). The assay can be described thus: Counter Screen using XIAP-Bir3 for Chemical Antagonists of Bir1/2 domains of IAP-family anti-apoptotic proteins. [Related pubchem assays (depositor defined):AID1018, AID1449, AID1514, AID1638, AID1749, AID1750, AID488957, AID488963].
The target of assay [17] is T9, E3 ubiquitin-protein ligase XIAP. Nature of the assay: XIAP antagonists, biochemical, IAP family, fluorescence polarization (AID 1018). In kind it is functional.
The target in assay [18] is T4, Intestinal-type alkaline phosphatase. Nature of the assay: human IAP activators, dose response, biochemical, luminescent, uHTS hits, set 2 (AID 488817).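 Also: potency of activators that raise enzyme activity.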 Format: functional.
The target is the same in assay [19]. The assay can be described thus: human intestinal alkaline phosphatase activators, dose response, biochemical, luminescence, uHTS hits (AID 463120). In kind it is functional.
For assay [20], the target named is T3, Intestinal-type alkaline phosphatase. The assay can be described thus: PubChem AID 488874. Format: functional.
In assay [21] the target is T5, Alkaline phosphatase, tissue-nonspecific isozyme. Nature of the assay: TNAP enzyme activators, dose response, selectivity assay for human IAP activator project, biochemical, TNAP isozyme, human IAP uHTS hits (AID 488886).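 Also: potency of compounds raising TNAP activity as a selectivity check on IAP activators.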 In kind it is functional.
The target of assay [22] is Metabotropic glutamate receptor 1 (Rattus norvegicus, UniProt P23385). Nature of the assay: Modulation of the Metabotropic Glutamate Receptor mGluR4: Selectivity at mGluR1. [Related pubchem assays (depositor defined):AID2437, AID2807]. Format: functional.
Assay [23] has as its target Metabotropic glutamate receptor 7 (Rattus norvegicus, UniProt P35400). The assay can be described thus: Modulation of the Metabotropic Glutamate Receptor mGluR4: Selectivity at mGluR7. [Related pubchem assays (depositor defined):AID2437, AID2807]. In kind it is functional.
Assay [24] deals with Metabotropic glutamate receptor 2 (Rattus norvegicus, UniProt P31421). Nature of the assay: rat mGluR2 glutamate potency shift by compounds, selectivity assay for mGluR4 modulator project, cell-based (AID 2188). In kind it is functional.

T4 sequence (P09923 whole entry): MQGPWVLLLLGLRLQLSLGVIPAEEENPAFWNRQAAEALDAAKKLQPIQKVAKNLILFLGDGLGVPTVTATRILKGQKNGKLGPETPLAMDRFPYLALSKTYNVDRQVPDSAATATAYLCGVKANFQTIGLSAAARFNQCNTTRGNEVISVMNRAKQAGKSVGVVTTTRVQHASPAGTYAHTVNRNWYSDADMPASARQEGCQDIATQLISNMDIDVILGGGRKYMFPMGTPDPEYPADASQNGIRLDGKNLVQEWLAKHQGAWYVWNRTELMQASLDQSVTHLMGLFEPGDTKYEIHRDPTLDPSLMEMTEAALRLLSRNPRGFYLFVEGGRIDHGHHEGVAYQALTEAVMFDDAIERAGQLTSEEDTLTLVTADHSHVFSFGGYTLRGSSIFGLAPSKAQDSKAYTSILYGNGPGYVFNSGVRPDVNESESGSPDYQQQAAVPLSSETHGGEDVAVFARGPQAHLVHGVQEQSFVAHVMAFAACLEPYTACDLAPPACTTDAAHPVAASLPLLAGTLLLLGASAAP
T7 sequence (P41145 whole entry): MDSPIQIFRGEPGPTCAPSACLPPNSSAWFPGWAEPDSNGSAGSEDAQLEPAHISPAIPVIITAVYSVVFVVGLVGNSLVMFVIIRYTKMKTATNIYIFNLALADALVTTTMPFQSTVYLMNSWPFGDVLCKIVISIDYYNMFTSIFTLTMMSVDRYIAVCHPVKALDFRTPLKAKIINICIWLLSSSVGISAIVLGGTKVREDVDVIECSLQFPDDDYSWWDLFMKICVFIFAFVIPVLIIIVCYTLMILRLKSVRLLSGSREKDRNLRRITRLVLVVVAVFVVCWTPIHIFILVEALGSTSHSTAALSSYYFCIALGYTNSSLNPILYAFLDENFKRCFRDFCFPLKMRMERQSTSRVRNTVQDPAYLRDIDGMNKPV
T8 sequence (P35372 whole entry): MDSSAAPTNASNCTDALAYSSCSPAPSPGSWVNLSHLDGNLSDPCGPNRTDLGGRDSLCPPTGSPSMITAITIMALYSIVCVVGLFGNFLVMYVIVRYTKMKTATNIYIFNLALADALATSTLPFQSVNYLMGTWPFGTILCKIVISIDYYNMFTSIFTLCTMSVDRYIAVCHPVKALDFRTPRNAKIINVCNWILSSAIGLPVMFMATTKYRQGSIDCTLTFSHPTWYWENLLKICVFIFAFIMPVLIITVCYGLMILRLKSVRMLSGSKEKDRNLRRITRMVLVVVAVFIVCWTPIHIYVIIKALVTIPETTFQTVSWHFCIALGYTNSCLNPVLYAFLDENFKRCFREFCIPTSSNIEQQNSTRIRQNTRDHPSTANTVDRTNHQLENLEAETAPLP
T6 sequence (P41143 whole entry): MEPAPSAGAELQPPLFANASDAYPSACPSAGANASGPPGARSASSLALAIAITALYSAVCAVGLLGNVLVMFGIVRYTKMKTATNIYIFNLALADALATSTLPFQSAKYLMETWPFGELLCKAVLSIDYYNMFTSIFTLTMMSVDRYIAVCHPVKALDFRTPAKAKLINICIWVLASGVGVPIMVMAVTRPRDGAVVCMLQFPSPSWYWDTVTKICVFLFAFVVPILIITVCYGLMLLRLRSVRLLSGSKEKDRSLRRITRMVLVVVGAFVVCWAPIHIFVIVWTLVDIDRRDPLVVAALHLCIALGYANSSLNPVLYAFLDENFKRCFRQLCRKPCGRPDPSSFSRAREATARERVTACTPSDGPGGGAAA
T9 sequence (P98170 whole entry): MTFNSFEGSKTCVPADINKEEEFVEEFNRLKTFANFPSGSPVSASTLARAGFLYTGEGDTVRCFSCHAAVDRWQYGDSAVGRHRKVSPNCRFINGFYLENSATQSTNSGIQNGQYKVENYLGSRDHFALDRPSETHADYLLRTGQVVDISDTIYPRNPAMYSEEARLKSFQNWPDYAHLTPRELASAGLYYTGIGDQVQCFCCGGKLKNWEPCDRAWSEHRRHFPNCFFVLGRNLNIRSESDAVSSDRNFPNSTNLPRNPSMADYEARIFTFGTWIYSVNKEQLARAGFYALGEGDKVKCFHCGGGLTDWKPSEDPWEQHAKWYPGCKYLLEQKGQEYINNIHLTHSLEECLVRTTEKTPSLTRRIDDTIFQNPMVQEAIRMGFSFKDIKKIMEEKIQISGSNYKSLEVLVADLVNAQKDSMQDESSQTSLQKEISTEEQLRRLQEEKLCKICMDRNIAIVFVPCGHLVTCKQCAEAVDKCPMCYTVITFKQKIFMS
T3 sequence (P24822 whole entry): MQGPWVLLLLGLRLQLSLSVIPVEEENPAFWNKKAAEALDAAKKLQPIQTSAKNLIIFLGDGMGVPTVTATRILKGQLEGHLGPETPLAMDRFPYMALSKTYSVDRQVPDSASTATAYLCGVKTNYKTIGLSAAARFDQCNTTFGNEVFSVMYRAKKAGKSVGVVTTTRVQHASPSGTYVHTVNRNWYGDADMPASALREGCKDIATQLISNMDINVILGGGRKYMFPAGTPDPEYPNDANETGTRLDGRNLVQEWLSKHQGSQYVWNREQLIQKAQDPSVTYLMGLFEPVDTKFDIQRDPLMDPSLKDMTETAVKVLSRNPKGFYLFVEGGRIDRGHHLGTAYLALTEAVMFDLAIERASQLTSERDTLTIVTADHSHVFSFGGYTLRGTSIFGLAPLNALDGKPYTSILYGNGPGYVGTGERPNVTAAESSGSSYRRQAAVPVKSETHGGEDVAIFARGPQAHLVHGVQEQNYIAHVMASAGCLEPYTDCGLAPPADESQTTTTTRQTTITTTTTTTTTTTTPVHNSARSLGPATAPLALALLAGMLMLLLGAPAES
Chain of Metabotropic glutamate receptor 1 (P23385 whole entry): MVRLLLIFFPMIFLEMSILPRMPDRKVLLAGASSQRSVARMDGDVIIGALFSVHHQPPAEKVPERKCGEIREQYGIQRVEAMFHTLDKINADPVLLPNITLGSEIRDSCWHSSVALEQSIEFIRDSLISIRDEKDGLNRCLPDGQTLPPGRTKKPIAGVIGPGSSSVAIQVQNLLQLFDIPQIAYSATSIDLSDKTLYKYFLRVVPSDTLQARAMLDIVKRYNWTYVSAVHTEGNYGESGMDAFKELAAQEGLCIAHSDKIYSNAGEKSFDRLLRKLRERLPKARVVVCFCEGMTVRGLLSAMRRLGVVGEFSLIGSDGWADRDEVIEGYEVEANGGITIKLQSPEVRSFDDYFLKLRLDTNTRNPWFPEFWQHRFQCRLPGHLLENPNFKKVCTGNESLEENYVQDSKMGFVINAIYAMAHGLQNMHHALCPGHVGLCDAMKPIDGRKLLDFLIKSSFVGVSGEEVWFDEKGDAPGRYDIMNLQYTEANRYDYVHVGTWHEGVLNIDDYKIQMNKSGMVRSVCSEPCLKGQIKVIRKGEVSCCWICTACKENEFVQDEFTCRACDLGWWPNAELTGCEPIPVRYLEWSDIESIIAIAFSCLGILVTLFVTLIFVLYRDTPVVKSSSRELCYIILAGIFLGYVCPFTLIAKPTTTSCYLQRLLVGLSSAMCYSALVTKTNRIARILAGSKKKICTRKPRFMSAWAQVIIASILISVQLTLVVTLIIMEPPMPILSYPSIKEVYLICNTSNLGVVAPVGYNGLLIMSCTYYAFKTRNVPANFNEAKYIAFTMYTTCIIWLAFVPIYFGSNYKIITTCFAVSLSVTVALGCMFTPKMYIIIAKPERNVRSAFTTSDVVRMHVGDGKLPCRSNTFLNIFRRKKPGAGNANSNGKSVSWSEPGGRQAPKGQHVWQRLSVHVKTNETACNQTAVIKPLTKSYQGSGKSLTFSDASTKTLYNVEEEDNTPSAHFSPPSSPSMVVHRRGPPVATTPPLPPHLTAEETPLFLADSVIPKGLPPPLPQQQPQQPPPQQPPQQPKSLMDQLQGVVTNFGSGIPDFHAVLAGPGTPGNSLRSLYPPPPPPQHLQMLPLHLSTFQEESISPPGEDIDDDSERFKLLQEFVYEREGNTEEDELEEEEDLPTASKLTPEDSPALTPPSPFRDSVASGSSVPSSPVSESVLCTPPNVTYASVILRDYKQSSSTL
Chain of Mucolipin-3 (Q8TDD5 whole entry): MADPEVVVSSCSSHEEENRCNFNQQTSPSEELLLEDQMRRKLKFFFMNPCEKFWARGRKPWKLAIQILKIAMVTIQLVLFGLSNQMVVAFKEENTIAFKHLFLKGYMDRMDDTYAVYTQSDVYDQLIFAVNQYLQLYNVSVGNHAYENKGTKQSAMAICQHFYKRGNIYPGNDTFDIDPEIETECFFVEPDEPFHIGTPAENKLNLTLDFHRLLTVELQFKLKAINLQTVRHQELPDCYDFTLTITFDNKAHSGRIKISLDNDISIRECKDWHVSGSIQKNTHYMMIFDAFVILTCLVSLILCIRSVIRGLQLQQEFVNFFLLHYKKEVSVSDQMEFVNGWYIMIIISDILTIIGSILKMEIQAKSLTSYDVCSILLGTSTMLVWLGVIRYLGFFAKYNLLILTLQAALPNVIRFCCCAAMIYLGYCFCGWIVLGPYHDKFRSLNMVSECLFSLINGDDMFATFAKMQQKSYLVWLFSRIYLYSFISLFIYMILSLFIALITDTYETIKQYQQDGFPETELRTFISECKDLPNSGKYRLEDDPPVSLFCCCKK
Chain of Peroxisome proliferator-activated receptor gamma (P37231 whole entry): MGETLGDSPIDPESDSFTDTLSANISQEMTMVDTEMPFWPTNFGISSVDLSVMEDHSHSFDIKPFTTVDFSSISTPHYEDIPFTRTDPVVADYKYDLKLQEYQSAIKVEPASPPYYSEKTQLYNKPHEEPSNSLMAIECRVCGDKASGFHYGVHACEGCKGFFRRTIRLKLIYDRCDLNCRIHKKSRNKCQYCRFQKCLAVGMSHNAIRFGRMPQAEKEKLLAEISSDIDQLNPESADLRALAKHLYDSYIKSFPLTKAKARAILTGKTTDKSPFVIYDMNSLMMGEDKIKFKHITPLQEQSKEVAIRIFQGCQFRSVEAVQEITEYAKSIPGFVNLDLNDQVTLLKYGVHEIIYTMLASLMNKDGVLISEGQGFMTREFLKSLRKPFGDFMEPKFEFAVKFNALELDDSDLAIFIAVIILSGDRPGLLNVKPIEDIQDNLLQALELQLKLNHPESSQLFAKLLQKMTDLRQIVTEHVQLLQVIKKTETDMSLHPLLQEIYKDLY

A word on the EC50: it is the midpoint of the concentration-response curve. Regarding `CN1C(=O)C(=Cc2sc(=O)n(-c3ccccc3)c2N2CCCCC2)C(=O)N(C)C1=O`, the EC50 is 10.7 µM (not active) at Mucolipin-3, 4.56 µM (inconclusive) in [1], 19.9 µM (inconclusive) in assay [2] and > 3.32 µM (inactive) at Ion channel NompC.

As a reminder, the IC50 is the midpoint of a concentration-inhibition curve. Consider `CN(CC(=O)NC(c1ccccc1)c1ccccc1)Cc1nc(O)c2ccccc2n1`, for which the IC50 in [3] is 7.93 µM (active); in assay [4], 26.6 µM (active); in assay [5], 74.2 µM (active).

On to `CCCCN(Cc1cc2cc(OC)ccc2[nH]c1=O)C(=O)c1ccccn1`, for which the IC50 (in [6]; on Mu-type opioid receptor [9]; in assay [11]) was > 32 µM (inactive) throughout. Besides, the EC50 in assay [7] is > 32 µM (inactive); in assay [8], > 10 µM (inactive); in [10] it was 19.9 µM (inactive); on Mu-type opioid receptor [12], > 32 µM (inactive).

For the compound `COc1ccc2c(c1)c(=O)c(C(=O)c1ccc(C)cc1)cn2CC(=O)Nc1ccc(F)cc1`, the EC50 in [13] is 14 µM (active).

As to `Clc1ccc(CSc2nnc(-c3ccc(Br)cc3)n2Cc2ccco2)cc1Cl`, the EC50 in [14] was 8 µM (active).

Take `CCC(Sc1nc2ccsc2c(=O)n1Cc1ccc(C(=O)O)cc1)C(=O)Nc1ccc(Cl)cc1` (stereo unspecified): the IC50 in [15] was > 32 µM (inactive).

Take `COc1ccc(/C=N/Nc2nc(N3CCCC3)nc(N3CCCC3)n2)cc1`: the values for the IC50 in assay [16] and in assay [17] were > 100 µM (inactive) and > 100 µM (not active), respectively.

As for `COc1ccc(O)c(/C=N/NC(=S)NCCc2ccccc2)c1`, the EC50 in assay [18] is 16 µM (active); in [19], 13.1 µM (active); in [21], 26.3 µM (active). Besides, in assay [20], the IC50 was 60.7 µM (active).

Turning to `COc1cc(NC(=O)c2ccccn2)ccc1Cl`, the EC50 in [22] is 0.943 µM (inactive); in [24], 1.04 µM (inactive). For the same compound, the “Activity EC50” value in [23] worked out at 313 µM.
